According to PubChem BioAssay AID179 (DTP/NCI, 2004):
The source made the active and inactive calls.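 The calls were made as follows: active = compounds giving half or more protection of infected cells from virus-caused growth loss, again on retest; inactive = the rest.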 Where a SMILES comes first, the peptide text is derived from it. [ ]: non-standard residue; d: D form. The star is where a group is joined. Phe(4-NO2) = N[CH](Cc1ccc([N+](=O)[O-])cc1)C(=O)O; Boc = CC(C)(C)OC(=O)*

Test system: CEM cells HIV-1 protection, formazan growth assay
Test: NCI AIDS Antiviral Assay
Conditions: for IC50: measured here: growth of uninfected CEM cells
How it was run: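 Human CEM cells, uninfected and HIV-1-infected, exposed to five drug concentrations; growth measured by soluble formazan assay and scored as percent protection from infection, with protecting compounds retested.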

Compound	EC50	IC50	outcome
Nc1ccc(Nc2nc(F)nc(-c3c4ccccc4c4n3CCS4)n2)cc1	> 7.24 µM	3.63 µM	
CCOC(=O)CCC(NC(=O)C(Cc1ccc([N+](=O)[O-])cc1)NC(=O)OC(C)(C)C)C(=O)NC(CCC(=O)OCC)C(=O)OCC (stereo unspecified) (Boc-[Phe(4-NO2)]-Glu(OEt)-Glu(OEt)-OEt; configuration not given here)	> 200 µM	9.77 µM	
N[C@H]1c2ccsc2C(=O)[C@H]1O	> 1 µM	> 1 µM	
O=C(NCc1ccccc1)C1C(=O)C(=O)N(Cc2ccccc2)C1=O (stereo unspecified)	> 269 µM	> 269 µM	
Cc1csc(N2C(=O)c3cccc4cccc(c34)C2=O)n1	> 200 µM	64.6 µM	
CCCCC[C@@H]1OC(=O)/C(=C2/CC[C@@H](CCCC)O2)C(=O)[C@@H]1O			inactive
Oc1cccc(/C=C/c2cnnc3ccccc23)c1	> 200 µM	37.2 µM	
O=c1c(OS(=O)(=O)O)c(-c2ccc(OS(=O)(=O)O)c(OS(=O)(=O)O)c2)oc2cc(OS(=O)(=O)O)cc(OS(=O)(=O)O)c12	> 100 µM	51.3 µM	
CCOC(=O)C1C2CCC(C2=C(c2ccccc2)c2ccccc2)C1C(=O)O (stereo unspecified)	> 234 µM	102 µM	
Cc1cccc(NC(=O)C(=O)Cc2nc3ccccc3[nH]c2=O)c1C			inactive
CCOC(=O)C(Cc1ccccc1[N+](=O)[O-])C(=O)OCC	> 200 µM	102 µM	
CCNC(=S)NCCc1c[nH]c2ccccc12	> 200 µM	186 µM	
COC(=O)[C@H](Cc1ccc(O)cc1)NC(=O)[C@H](Cc1ccc(O)cc1)NC(=O)OC(C)(C)C (HELM PEPTIDE1{[CC(C)(C)OC(=O)[*:2]].Y.Y.[CO[*:1]]}$$$$V2.0)	> 200 µM	93.3 µM	
Cn1nc2c(c1N)Cc1c(nn(C)c1N)-c1ccccc1-2	> 200 µM	191 µM	
CCCCc1ccc(Nc2nc(Cl)c3ncn(C4CC(Oc5ccc(C)cc5)C(COc5ccc(C)cc5)O4)c3n2)cc1 (stereo unspecified)	> 200 µM	> 200 µM	
NC(=O)c1ncn(Cc2ccccc2)c1CNC(N)=S			inactive
C[P+]1(C)CCc2c1ccc1ccccc21			inactive
Nc1[nH]c(=S)nc2nc3c(c(-c4ccccc4)c12)CCCC3	> 50.1 µM	> 50.1 µM	
Cc1ccc2nc(NC(=S)SSC(=S)Nc3nc4ccc(C)cc4s3)sc2c1	> 200 µM	0.537 µM	
CN(C)S(=O)(=O)c1c(N)ncn1C	> 1230 µM	> 1230 µM	
CN(C)C=NCC(O)c1ccccc1 (stereo unspecified)	> 200 µM	> 200 µM	

Compound	EC50	IC50	outcome
CC1(C)CCCCCCC2CC2CCCCCC(C)(C)C1=O (stereo unspecified)	> 200 µM	105 µM	
Cc1ccc(-n2c3nc(=O)n(C)c(=O)c-3nc3ccccc32)cc1			inactive
CCCCc1c2c(nc3c1CCC/C3=C\c1ccccc1)C(=O)CCC2	> 5.75 µM	> 5.75 µM	
Cc1cc(=O)[nH]c2cc(N(C)C)ccc12	> 67.6 µM	> 67.6 µM	
N#CC(/C=C/c1ccccc1)Nc1ccccc1N (stereo unspecified)	> 28.8 µM	> 28.8 µM	
O=C1N(c2ccccc2)C(=O)C2(SC=NN2Cc2ccccc2)N1c1ccccc1 (stereo unspecified)			inactive
Cc1cccc(/C=N/NC(=S)N2CCCCCC2)n1	> 200 µM	0.0631 µM	
COC(=O)N1CCc2c(nc(N(C)CCO)[nH]c2=O)C1	> 891 µM	708 µM	
Cc1cc(-c2ccc(N=Nc3ccc4c(S(=O)(=O)[O-])cc(S(=O)(=O)[O-])c(N)c4c3O)c(C)c2)ccc1N=Nc1ccc2c(S(=O)(=O)[O-])cc(S(=O)(=O)[O-])c(N)c2c1O.[Ga]	1.12 µM	38.9 µM	
CN(C)c1ccc(/C=C/C(=O)O)cc1	> 1150 µM	> 1150 µM	
COC(=O)/C(=N/O)C(C(=O)OC)C(=O)C(=O)Nc1c(Cl)cc(C)cc1S(=O)(=O)O (stereo unspecified)	> 550 µM	> 550 µM	
NS(=O)(=O)c1cc2c(cc1Cl)NC(/C(=N/NC(=O)c1ccncc1)C1C(=O)NC(=O)NC1=O)=NS2(=O)=O	> 87.1 µM	> 87.1 µM	
Cc1ccc(-c2c(C#N)c(-c3ccc(N(C)C)cc3)c(C#N)c(=O)n2NS(=O)(=O)c2ccccc2)cc1	> 200 µM	18.2 µM	
CN(C)/C=C/C(=CC=[N+](C)C)/C=C/N(C)C			inactive
CCOC(=O)N1CCN(C(=O)COc2cc3c(O)c4c(O)c(C)c5c(c24)C(=O)C(C)(O/C=C/C(OC)C(C)C(OC(C)=O)C(C)C(O)C(C)C(O)C(C)/C=C/C=C(\C)C(=O)N3)O5)CC1 (stereo unspecified)	> 200 µM	13.5 µM	
Nc1c(-c2nc3ccccc3s2)c2ccc([N+](=O)[O-])cc2c(=O)n1-c1cccc(C(=O)O)c1	7.76 µM	37.2 µM	
COc1cc(/C=C2\C(=O)N(c3ccc(Cl)cc3)C(c3ccccc3)S2(=O)=O)cc(OC)c1OC (stereo unspecified)			inactive
CN(C)CCNC(=O)c1cc([N+](=O)[O-])ccn1	> 200 µM	95.5 µM	
CCC[CH2][Sn]([CH2]CCC)([CH2]CCC)[CH2]N1CCC(=O)C[C@@H]1C/C=C/[P@]1(=O)O[C@H](c2ccccc2)C(C)N1C(C)C (stereo partly specified)			inactive
CCCCCCCCCCCCCCOP(=O)(O)OCCC=C(c1cc(Cl)c(O)c(C(=O)O)c1)c1cc(Cl)c(O)c(C(=O)O)c1	> 200 µM	> 100 µM	
CC(C)(C)OC(=O)N[C@H]1CC(=O)c2ccccc2N(CC(=O)O)C1=O	> 251 µM	> 251 µM	

Compound	EC50	IC50	outcome
COc1ccc2c(c1[N+](=O)[O-])CC[C@@H]1[C@@H]2CC[C@]2(C)C(=O)CC[C@@H]12	> 11 µM	> 11 µM	
CC(=N)C(C#N)C(=S)S (stereo unspecified)	> 537 µM	27.5 µM	
O=C(O)C1Cc2ccccc2OC1=O (stereo unspecified)	> 200 µM	> 200 µM	
CC(C)(C)[Si](C)(C)OC1/C(=C/C#N)C(n2ccc(=O)[nH]c2=O)OC1CO (stereo unspecified)	> 200 µM	> 200 µM	
Cc1ccc(S(=O)(=O)NC(=S)S)cc1	> 200 µM	> 200 µM	
CC(=O)NNC(=S)/N=C\c1c(O)c2ccccc2oc1=O			inactive
C/C(C=O)=C\c1cccc(F)c1	> 158 µM	> 158 µM	
C=CCCCC[P+](c1ccccc1)(c1ccccc1)c1ccccc1	> 20 µM	1.45 µM	
CCOC(=O)Nn1c(CC#N)nnc1Cc1ccccc1	> 200 µM	> 200 µM	
C/C(=N/NC(=S)N1CCN(C(=S)N/N=C(/C)c2ccccn2)CC1)c1ccccn1	> 200 µM	3.98 µM	
COc1cc2cccc(N)c2cc1OC	> 200 µM	> 200 µM	
CCOC(=O)OC1C(Br)C2CCC1(C)C2(C)C (stereo unspecified)	> 200 µM	> 200 µM	
Cc1ccc(N(C(=[As]c2ccccc2)C(C)(C)C)[Si](C)(C)C)cc1 (stereo unspecified)	> 18.2 µM	> 18.2 µM	
COc1cnc([C@H]2CCC3[C@@H]4CC=C5C[C@@H](OC(C)=O)CC[C@]5(C)C4CC[C@@]32C)s1 (stereo partly specified)	> 21.9 µM	> 21.9 µM	
O=C(CC(O)(C(F)(F)F)C(F)(F)F)c1cccc(Cl)c1	> 200 µM	182 µM	
CC(C)=CCC1(O)C(=O)c2ccccc2C1(O)C(=O)O (stereo unspecified)	> 200 µM	> 200 µM	
Oc1cccc2c1NC1=C(CCC/C1=C\c1ccccc1)C2	> 9.33 µM	> 9.33 µM	
CCOC(=O)C(=CNc1cccc(NC=C(C(=O)OCC)C(=O)OCC)c1)C(=O)OCC	> 200 µM	19.1 µM	
Cc1nc(-n2nc(-c3ccccc3)cc2-c2ccccc2)sc1C(/C=C/c1ccc([N+](=O)[O-])cc1)=N/NC(=O)c1ccncc1	> 42.7 µM	37.2 µM	
Cc1c(-c2ccccc2)sc(N)c1C#N			inactive
O=C(Nc1nc(=S)c2c(ncn2CCO)[nH]1)c1ccccc1	> 575 µM	28.2 µM	

Compound	EC50	IC50	outcome
COC(=O)C(=O)C(C(=O)C(=O)Nc1nc2ccc(C)cc2s1)c1nc2ccc([N+](=O)[O-])cc2[nH]c1=O (stereo unspecified)	> 132 µM	126 µM	
COc1ccc(NS(=O)CCc2ccccc2)cc1 (stereo unspecified)	> 200 µM	22.9 µM	
Cc1ccc2c(c1C)CC1(Cc3ccc(C)c(C)c3C1=O)C2=O (stereo unspecified)	> 100 µM	> 100 µM	
COc1nc2c(c(=O)n1C)N=C(c1ccccc1)[C@H](C(CC(=O)c1ccccc1)c1ccccc1)C(c1ccccc1)N2 (stereo partly specified)			inactive
O=[N+]([O-])c1ccc(C2SCc3nc4ccccc4n32)cc1 (stereo unspecified)	> 55 µM	33.1 µM	
O=C1CCC2=C(CCC2)N1CCc1ccc2c(c1)OCO2			inactive
Cc1c(C)n(COCCO)c2ncnc(N)c12	> 200 µM	> 200 µM	
c1ccc(-c2nnc3nn4c(-c5ccccc5)cnnc4c3c2-c2ccccc2)cc1	> 9.33 µM	> 9.33 µM	
CC(C)c1ccc2nc3ccc(C(=O)NCCN(C)C)cn3c(=O)c2c1	> 200 µM	12.6 µM	
CC(C)C[C@H]1[C@@H](OCc2ccccc2)COS(=O)(=O)N1[C@H](C)c1ccccc1	> 200 µM	11.2 µM	
OC(C1CCC=NN1C(O)(C(F)(F)F)C(F)(F)F)(C(F)(F)F)C(F)(F)F (stereo unspecified)	> 200 µM	26.9 µM	
COc1cc(C(=O)O)c(-c2cc3c(cc2C=O)OCO3)c(OC)c1OC	> 692 µM	> 692 µM	
CCCCN1C(=O)c2cccc3cccc(c23)C1=O	> 200 µM	112 µM	
O=S(=O)(O)c1cc(O)c2c(O)cc(S(=O)(=O)O)c(N=Nc3ccc(/C=C/c4ccc(N=Nc5c(S(=O)(=O)O)cc(O)c6c(O)cc(S(=O)(=O)O)cc56)cc4S(=O)(=O)O)c(S(=O)(=O)O)c3)c2c1	15.5 µM	75.9 µM	
C=CCC(C)(C(=O)NCCC)C(=O)c1ccccc1O (stereo unspecified)			inactive
CCn1c(SCC(=O)NNC(=S)Nc2ccc(C)cc2)nc2ccccc2c1=O	> 200 µM	105 µM	
O=C(Nc1ccc(NC(=O)Nc2cc(C(=O)Nc3ccc(C4=NCCN4)cc3)ccc2C(=O)Nc2ccc(C3=NCCN3)cc2)cc1)Nc1cc(C(=O)Nc2ccc(C3=NCCN3)cc2)ccc1C(=O)Nc1ccc(C2=NCCN2)cc1	31.6 µM	> 100 µM	
c1cc(CN2CCNCCNCCNCC2)cc(CN2CCNCCNCCNCC2)c1	> 200 µM	> 200 µM	
COc1ccc(NC(=O)/C(=N/NC(N)=S)C2C(=O)NC(=S)NC2=O)c(OC)c1	> 589 µM	> 589 µM	
O=C1CCCc2[nH]c(=O)ccc21			inactive
